Laboratory results reported in patent EP0551434B1 (BOARD OF REGENTS THE UNIVERSITY OF TEXAS SYSTEM, priority 1990, dated 1992).
Read-outs that look alike come from different tables or passages of the source.

Tests used:
MCF7 = assay: Inhibition of MCF7 breast tumor cell growth in vitro (72 hour exposure, MTT tetrazolium dye assay); assay type: cell-based, human
Method: The MCF7 cell line is a human tumor cell line. This cell line was cultured in MEM( (Eagles) media in a 5% C0^2 atmosphere with 10% fetal calf serum that had been washed twice with dextran coated charcoal to reduce endogenous estrogen levels. The media was supplemented with 1 mM sodium pyruvate and 100 µm non-essential amino acids. The cell line was screened routinely for myoplasma contamination using the GenProbe kit (Fisher). Cells were trypsinized and plated at a density of 5,000 cells/well in 96 well microtiter plates and allowed to attach and recover for 24 hours.
The media was removed by aspiration and replaced with filter sterilized drug (concentration from 10-^4 M to […]) in media. The cells were incubated for 72 hours and then stained using the MTT tetrazolium dye assay of Mosmann^36 except that after the media was removed, the blue formazan product was solubilized in 50 µl/well DMSO.

estrogen receptor [1] = target: T1, estrogen receptor (Sus scrofa, UniProt Q29040); settings: for Ki: [^3H]estradiol 5 nM, 4°C
T1 sequence (Q29040 1-595): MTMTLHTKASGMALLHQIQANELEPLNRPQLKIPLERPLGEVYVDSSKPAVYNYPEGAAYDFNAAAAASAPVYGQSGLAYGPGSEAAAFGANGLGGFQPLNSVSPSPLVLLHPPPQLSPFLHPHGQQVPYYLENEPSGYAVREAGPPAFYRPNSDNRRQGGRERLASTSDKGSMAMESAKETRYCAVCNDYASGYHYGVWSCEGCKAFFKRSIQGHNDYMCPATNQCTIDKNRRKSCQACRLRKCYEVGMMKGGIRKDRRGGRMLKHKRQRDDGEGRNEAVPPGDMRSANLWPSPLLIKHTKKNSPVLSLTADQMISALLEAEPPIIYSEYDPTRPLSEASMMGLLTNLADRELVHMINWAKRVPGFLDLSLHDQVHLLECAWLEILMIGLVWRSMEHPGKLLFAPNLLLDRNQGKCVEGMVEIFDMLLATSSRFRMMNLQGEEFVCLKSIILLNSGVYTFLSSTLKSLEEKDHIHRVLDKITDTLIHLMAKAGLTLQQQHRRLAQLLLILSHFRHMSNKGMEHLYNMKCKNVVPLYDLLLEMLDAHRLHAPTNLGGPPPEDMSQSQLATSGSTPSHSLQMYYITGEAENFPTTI

estrogen receptor [2] = target: T1, estrogen receptor; assay: biochemical
[3] = Uterus to muscle ratio (tissue uptake, method not described); settings: in vivo
[4] = Homo sapiens, MCF7, 72 h, Table 6, 72 hour exposure, average of three experiments, read-out: IC50 Dose
[5] = Homo sapiens, MCF7, text values b172, read-out: IC50 MCF7 cell inhibition (converted)
[6] = Table 6, relative potency, IC50 ratio between tamoxifen and competitor, tamoxifen = 100
[7] = IC50(M), [^3H]estradiol 5 nM, 4°C
[8] = IC50(uM), concentration required to decrease bound [^3H]estradiol by 50%, average of three experiments
[9] = IC-50 estrogen receptor binding, [^3H]estradiol (5 nM)
[10] = Homo sapiens, MCF7, 72 h, read-out: IC50 Dose (µM)
[11] = IC50 ratio between tamoxifen and competitor, tamoxifen printed as 1

Compound	IC50 (MCF7; [4]) [µM]	IC50 (MCF7; [5]) [µM]	RP (MCF7; [6])	RBA (estrogen receptor [1])	RBA* (estrogen receptor [1])	fold higher affinity for the estrogen receptor than native tamoxifen (estrogen receptor [1])	Ki (estrogen receptor [2]) [µM]	IC50 (estrogen receptor [2]; [7]) [M]	IC50 (estrogen receptor [2]; [8]) [M]	IC50 (estrogen receptor [2]; [9]) [M]	other results
CCN(CC)CCOc1ccc(/C(=C(/CCCF)c2ccccc2)c2ccccc2)cc1 [Compound VI (trans)]	11.8	11.8	93								
CCN(CC)CCOc1ccc(/C(=C(/CCCI)c2ccccc2)c2ccccc2)cc1 [X (trans)]	6.3	6.3	175	15	1,500	15 fold	1	2e-06	2e-06	2e-06	Ki (estrogen receptor [1]): 1 µM
CCN(CC)CCOc1ccc(/C(=C(\CCCI)c2ccccc2)c2ccccc2)cc1 [X (cis), N,N-diethyl-iodomethyltamoxifen]	2.36	2.4	466	10	1,000	10 fold	1.5	3e-06	3e-06	3e-06	Ki (estrogen receptor [1]): 1.5 µM
CCN(CC)CCOc1ccc(/C(=C(/CCCI)c2ccccc2)c2ccccc2)cc1 [Compound X]						10-15 fold				2e-06	uterus to muscle ratio [3]: 3.6
CCN(CC)CCOc1ccc(/C(=C(/CCCBr)c2ccccc2)c2ccccc2)cc1 [Compound XI (trans), 1-[4-(2-Diethylaminoethoxy)phenyl]-1,2-diphenyl-5-bromo-1-entene]			298						2e-07	2e-07	IC50 (MCF7; [10]): 4.9 µM; RBA (estrogen receptor [1]; [11]): 150
CCN(CC)CCOc1ccc(/C(=C(/CCCCl)c2ccccc2)c2ccccc2)cc1 [Compound XII (trans), 1[4-(2-Diethylaminoethoxy)phenyl]-1,2-diphenyl-5-chloro-1-pentene]			146	75							IC50 (MCF7; Table 6, 72 hour exposure, average of three experiments, read-out: IC50 Dose): 10 µM
CCN(CC)CCOc1ccc(/C(=C(/CCCO)c2ccccc2)c2ccccc2)cc1 [III (trans), N,N-diethyl-hydroxymethyltamoxifen]	22		50	4	400		3.5	7e-06	7e-06	7e-06	
CCN(CC)CCOc1ccc(/C(=C(\CCCF)c2ccccc2)c2ccccc2)cc1 [VI (Cis), N,N-diethyl-fluoromethyltamoxifen]	4.5	4.5	244								
CCN(CC)CCOc1ccc(C(=C(CCF)c2ccccc2)c2ccccc2)cc1 (single isomer, unassigned) [Compound IV (Trans), N,N-diethyl-fluorotamoxifen]											RP (MCF7): 82
CCN(CC)CCOc1ccc(/C(=C(\CCCBr)c2ccccc2)c2ccccc2)cc1 [Compound XI (Cis), 1-[4-(2-Diethylaminoethoxy)phenyl]-1,2-diphenyl-5-bromo-1-entene]			2355						8e-07	8e-07	IC50 (MCF7; [10]): 0.62 µM; RBA (estrogen receptor [1]; [11]): 37.5
